# In patent US12391646B2, “Using adiponectin receptor agonists to treat inflammation and bone diseases in diabetes” (Trustees of Tufts College, priority 2020, dated 2025):
# What was measured:
# Assay type in all cases: cell-based
# [1] = system: RAW 264.7 cells in high glucose medium; experiment: Osteoclastogenesis and autophagy of RANKL-treated RAW 264.7 cells in high glucose medium; conditions: high glucose medium
# Procedure: FIG. 20 RAW 264.7 cells were treated with RANKL (100 ng/ml) with or without AdipoRon ([…]) or AdipoAI (5 μM) in low (5 mmol/l) glucose, 20 mmol/l D-mannitol or high (25 mmol/l) glucose medium. qRT-PCR analysis of cathepsin K (A), TRAP (B) and microtubule associated protein 1 light chain 3 (LC3) (C), and mRNA expression were calculated (n≥3). (D) Western blot analysis of LC3A/B protein levels normalized to β-actin. (E) The mean of protein/β-actin ratios normalized to 1.0 (RANKL-AdipoRon-AdipoAI-H group) quantified by densitometry. (F) Autophagosome images obtained with laser confocal microscopy after the RAW 264.7 cells were transfected with a GFP-LC3 plasmid and treated with RANKL and AdipoRon or AdipoAI (scale bar=50 μm). Data are shown as mean±SD. *, P<0.05. **P<0.01. ***P<0.001.
# FIG. 21 Autophagy inhibitor reverses AdipoAI-inhibited osteoclastogenesis in high glucose medium. RAW 264.7 cells were treated with RANKL (100 ng/ml) in 2 days and with or without AdipoAI (5 μM) for 24 hours followed by 3-methyladenine (3-MA, 2.5 mM) treatment for another 24 hours in high glucose medium. qRT-PCR analysis of cathepsin K (A), TRAP (B) and LC3 (C) mRNA expression were calculated (n≥3). (D) Western blot analysis of LC3A/B protein levels normalized to β-actin. (E) The mean of protein/β-actin ratios normalized to 1.0 (3-MA-, RANKL-, AdipoAI-group) quantified by densitometry. Data are shown as mean±SD. *, P<0.05. **P<0.01. ***P<0.001.
# FIG. 22 AdipoAI-induced autophagy of osteoclasts in high glucose medium via AKT1/mTOR signaling pathway. RAW 264.7 cells were induced with RANKL for 2 days and then treated with or without (5 μM) additional 24 hours after serum starvation for 4 hours. Then, the cells were treated with RANKL, AdipoAI or SC79 (5 μM), an AKT activator, for another 24 hours in high glucose medium. qRT-PCR analysis of mRNA expression of cathepsin K (A), TRAP (B) and LC3 (C) were calculated (n≥3). (D) Representative images show the protein expression levels of AKT, p-AKT, AKT1, p-AKT1, mTOR, p-mTOR, and LC3A/B in osteoclasts. Quantitative analysis of bands is shown in (E-K) (n≥3). Data are shown as mean±SD. *, P<0.05. **P<0.01. ***P<0.001. R: RANKL. A, AI: AdipoAI. SC5: SC79 (5 μM).
# RAW 264.7 cells (ATCC, Manassas, VA, USA) were cultured and passaged in DMEM supplemented with 10% (v/v) FBS (Invitrogen, Grand Island, NY, USA) and 1% Penicillin-Streptomycin (Gibco, Gaithersburg, MD, USA). For the induction of osteoclastogenesis, RAW 264.7 cells were cultured 24 in α-MEM supplemented with 10% FBS and 1% Penicillin-Streptomycin in the presence of 100 ng/ml RANKL (Peprotech, Rocky Hill, NJ, USA) for 2 days, and subsequently treated or not with AdipoRon or AdipoAI for another 2 days changing cell culture medium every 2 days. After a total of […] of culture, morphologic examination was performed, as was mRNA and protein expression. To simulate high glucose environment in vitro, α-MEM was supplemented with D-glucose to 25 mmol/l (high glucose) or 5 mmol/l (physiological glucose). 20 mmol/l D-mannitol served as an osmotic control.
# Total RNA was isolated from cell cultures and gingival soft tissues using TriZol reagent (Life Technologies, Carlsbad, CA, USA) according to the manufacturer's instructions^24. Reverse transcription was performed using the PrimeScript RT Master Mix (Takara Bio, Otsu, Japan) and real-time-qPCR analyses were performed using SYBR-Green Real-Time PCR Master Mix (Takara Bio, Otsu, Japan) as described earlier^27.
# Total cellular extracts were prepared using RIPA Lysis and Extraction Buffer containing three Protease Inhibitors (Santa Cruz, Dallas, TX, USA). Western blot analyses were performed as previously described 24. Antibodies for β-actin (1:2000) and GAPDH (1:5000), LC3A/B (1:1000), AKT1 (1:1000), p-AKT1 (1:1000), AKT (1:1000), p-AKT (1:1000), mTOR (1:1000), p-mTOR (1:1000) were purchased from Abcam and Cell Signaling Technology, respectively. SC79, an AKT activator was purchased from Sigma Aldrich. […]
# [2] = system: LPS-stimulated RAW 264.7 macrophages; experiment: qPCR of cytokine mRNA in LPS-stimulated RAW 264.7 macrophages; conditions: compounds at 5 μM vs APR at 20 μM, 24 h pretreatment, then LPS 100 ng/mL 6 h
# Procedure: (§1) FIG. 1 Characterization of anti-inflammatory properties of APR-like compounds. (a) Raw264.7 cells were pretreated with APR (20 μM) or new compounds 1 to 10 (5 μM) for 24 h followed by incubation with LPS (100 ng/mL) for an additional 6 h. IL-6 and IL-1β mRNA expression levels were evaluated by qPCR and normalized with GAPDH mRNA level. (b) Raw264.7 cells were pretreated with different doses of AdipoAI for 24 h followed by incubation with LPS (100 ng/mL) for additional 6 h to evaluate dose-dependency of AdipoAI in inhibiting IL-6 and IL-1β mRNA expression levels by qRT-PCR and normalized with GAPDH mRNA level. (c) Evaluation of cytotoxicity of APR, AdipoAI and compound 5 by CCK8 assay in Raw264.7 cells treated for 24 hours. (d) BMMs were pretreated with APR (20 μM), AdipoAI (5 μM) or compound 5 (5 μM) for 24 h followed by incubation with LPS (100 ng/ml) for additional 6 h for the measurement of IL-6 and IL-1β mRNA expression levels by qRT-PCR and normalized with GAPDH mRNA level. Data were expressed as the mean±SEM at five biological independent experiments. One-way ANOVA test for multiple-group comparisons, *P<0.05, significant differences between each indicated group.
# RAW 264.7 macrophage cell line was purchased from ATCC (Manassas, VA, USA) and maintained in DMEM (Gibco, Life Technologies, Carlsbad, CA, USA) supplemented with 10% (v.v-1) FBS (Gibco, Life Technologies) and 1% (v.v-1) penicillin/streptomycin (Gibco, Life Technologies). The cells were routinely cultured in an incubator at 37° C. in a humidified atmosphere of 5% CO2.
# Total RNA of cells was extracted using Quick-RNA Miniprep Kit (ZYMO Research, Irvine, CA, USA) and total RNA from mouse tissues was prepared with TriZol reagent (Life Technologies) according to the manufacturer's instructions followed by qRT-PCR assays as described previously (L. Zhang et al., 2014). 1 μg of total RNA was used for reverse transcription using the M-MLV Reverse Transcriptase (Thermo Scientific, Waltham, MA, USA) according to the manufacturer's protocol using PowerUp SYBR Green Master Mix (Thermo Scientific) on a Bio-Rad iQ5 thermal cycler (Bio-Rad Laboratories, Hercules, CA, USA). Differences in expression were evaluated by the comparative cycle threshold method using GAPDH or β-actin as a control. The primer sequences used for the qRT-PCR experiments are listed in supplemental Table 1.
# Macrophages were seeded at a density of 5×10^5 cells/well in 12-well plates. After overnight incubation, the cells were transfected for 24 h with siRNAs targeting specific genes or scrambled control siRNAs using HiPerFect Transfection Reagent (Qiagen, Hilden, Germany) according to the manufacturer's guidelines. Gene silencing efficiency was monitored by qPCR or Western blot analysis. The siRNA duplexes used in this study were chemically synthesized by Thermo Scientific.
# Raw264.7 cells = experiment: CCK-8 cytotoxicity assay, 24 hours; conditions: at 40 μM or lower concentrations
# Procedure: as §1
# Raw264.7 cells were seeded at 2×10^3 cells/well in 96-well plates for 16 hours and then serum-starved for 6 hours. Cells were maintained in DMEM in the presence of different concentrations of APR (AdipoGen Life Sciences, San Diego, CA, USA) and compounds for 24 hours. […] The detailed group assignment is shown in the individual figure legends.
structure (smiles),measurement,setting,value
"CCOC(=O)C1=C(N)Oc2ccc(Cl)cc2C1C(C#N)C(=O)OCC (stereo not drawn) [SC79, reference compound]","LC3II, AKT expression and AKT, AKT1, mTOR phosphorylation changes induced by AdipoAI",[1]; SC79 5 μM,reverses the promoted expression of LC3II
same,LC3 mRNA and osteoclastogenic marker mRNA under AdipoAI,[1]; SC79 5 μM,reverses the upregulated expression of LC3 mRNA and downregulated expression of osteoclastogenic markers
"Cn1cnc(N)c2ncnc1-2 [3-methyladenine, reference compound]",LC3 mRNA and LC3II protein induced by AdipoAI,[1]; 3-MA 2.5 mM 24 hours,decreased the mRNA expression of LC3 and protein expression of LC3II induced by AdipoAI
same,AdipoAI-inhibited mRNA expression of Cathepsin K and TRAP,[1]; 3-MA 2.5 mM,reversed the AdipoAI-inhibited mRNA expression of osteoclastogenesis markers Cathepsin K and TRAP
CC(c1ccccc1)N1CCC(NC(=O)COc2ccc(C(=O)c3ccc(Cl)cc3)cc2)CC1 (stereo not drawn) [Compound 5],inhibition of IL-6 and IL1-β mRNA expression,[2],stronger inhibitory effects than APR
same,cytotoxic effects (CCK-8),Raw264.7 cells,neither of the 3 small molecules mediated significant cytotoxic effects
